# Key:
# [1] = tested on: Src-TQ expressing ZM78 cell lines; test: Suppression of tet-induced phenotype changes, evaluated by eye/microscope, normal cell culture plates; type: cell-based, human; settings: adherent
# Method: Phenotype changes -tet → +tet were evaluated in 24-well plates (Nunc; cat.no. 143982) under the following several different growth conditions to identify the strongest possible response (Δpt(-tet→+tet)max) 1. full (10% serum containing) growth medium a) without any growth factor supplement (-), b) with epidermal growth factor (EGF; 100ng/ml) (cat.no. 115, Research Diagnostics Inc. (RDI), Flanders, NJ, USA) or c) platelet derived growth factor type BB (PDGF-BB; 30ng/ml) (cat.no. 114b, RDI) or d) hepatocyte growth factor (HGF; 20ng/ml) (RDI, cat.no.300-010), or 2. serum-free medium a) - or b) +EGF or c) +PDGF or d) +HGF. In all cases, cells were first seeded into standard 24-well or 96-well plates (Nunc) in full growth medium. The cell number seeded per well was also varied to identify the most suitable cell densities producing Δpt(-tet→+tet)max. […]
# To that end, the test compounds PP1-Chr., PP2 (cat.no. 529573, Calbiochem) and SU6656 (cat.no. 572635, Calbiochem) (see Fig.9p for chemical structures) were individually added to the cells together with tet, and the development of the phenotype changes in the presence of these compounds was monitored subsequently in direct comparison with cells that received no compound or only vehicle (0.2% DMSO) together with tet induction. […]
# [2] = tested on: Src-TQ/YF expressing cell line ZM170.21; test: CTB and ATP cell viability/metabolic activity assays, suppression of tet-induced reduction; type: cell-based, human; settings: ZM170.21 (Src-TQ/YF), 5µM PP2 + 10µM PP1-Chr., 40µM D5, 1µM 17-AAG, 1µM radicicol
# Excerpt: To proof the concept of the assay platform according to the invention in a quantitative manner with a highly parallel readout, the following cell viability / metabolic activity assays from Promega according to the manufacturer's protocols: "CellTiter 96 AQueous One Solution Cell Proliferation Assay (MTS)", CellTiter-BlueTM Cell Viability Assay (CTB), and the ATP-status assay "CellTiter-Glo Luminescent Cell Viability Assay" (ATP) were used to obtain quantitative values reflecting (aspects of) the phenotype changes. The cells were seeded into white-walled/ clear bottom 96-well plates ["MICROTEST" by Falcon, cat.no. 353947] for MTS and ATP assays and in black-walled/ clear bottom 96-well plates ["MICROTEST" by Falcon, cat.no. 353948] for the CTB assay at the appropriate densities. Tet and/or compound addition (where applicable) was started the next day. Measurements were taken 1,2 and 3 days later using the Wallac Victor^2TM multilabel plate reader (Perkin Elmer). Absorbance was measured at 490nm (MTS). Luminescence mode was used for the ATP assay. For CTB fluorescence excitation wavelength was 550nm (filter: 550(20)nm), emission wavelength was 590 nm (filter: 590(20)nm). Indicated are the means of sixplicate determinations (from 6 independent wells) in the absence of tet (mean(-tet)) and in the presence of tet (mean(+tet)), followed by the respective corresponding standard deviations SD(-tet) and SD(+tet). The cell viability/ metabolic activity upon tet-induction in relation to the cell viability/ metabolic activity without tet ("+/tet(means") is calculated from the quotient of the means of the measured cell viability/ metabolic activity signals from i) cells incubated without tet and ii) cells incubated with tet. […] Furthermore indicated are the corresponding Z' values. In the present context: Z'=1-(3(SD(+tet)+SD(-tet))/ |mean(+tet)-mean(-tet)|. […] SD=0) (Zhang et al., 1999). Z'≥0 is required for an assay useful for a screening approach; a Z'≥0.5 is considered excellent for an assay with regard to high throughput screening. […] Three more parameters reflecting the effects of compounds on cell viability/metabolic activity in these assays are indicated in Tab.3 and Tab.4: Toxicity reflects the nonspecific (i.e. irrespective of tet-induced Src/ Src mutant expression) effects of a compound on the viability/ metabolic activity of the cells. It is calculated as toxicity=1-mean(-tet, compound)/mean(-tet,(DMSO)). […] The suppression value quantifies the potency of a compound with respect to suppression of the tet-induced change in cell viability / metabolic activity. Usually, tet-induction reduces cell viability / metabolic activity due to Src activity and addition of a Src inhibitory compound mitigates this reduction. A suppression of 100% means that the compound totally suppresses the tet-induced decrease in cell viability / metabolic activity (as in the absence of tet). The following formula is employed: Suppres-sion=([…]). Finally, the corresponding Z' value is calculated as follows: Z'(suppression)=1- 3([…]). The factor Qtox corrects the means and SD determined in the absence of a compound for the (nonspecific) toxicity effect of the respective compound, which would otherwise overlay and obscure the specific suppression, if toxicity is not neglectable. […] On each day 4 measurements are taken (1, 2, 3 and 4 h after the addition of the CTB assay reagents). […]
# [3] = tested on: Src family kinases when they carry the respective TQ mutations; settings: cited from earlier work
structure (smiles),measurement,setting,value
CC(C)(C)n1nc(-c2ccc(Cl)cc2)c2c(N)ncnc21 [PP2],suppression of tet-induced phenotype changes,[1],ineffective
same,suppression of the +/-tet(means)-values,[2],did not significantly suppress
same,inhibition of Src family kinases carrying the TQ mutations,[3],do not inhibit

# From patent EP1541694A1, “Methods of identifying, selecting and/or characterizing compounds which modulate the activity of a Src family kinase” (Sirenade Pharmaceuticals AG, priority 2003, dated 2005)
